Converted amounts (≈) assume the structure as drawn.
Columns and labels:
Type in all cases: cell-based
[1] = tested on: Plasmodium falciparum (strain 3D7); experiment: In vitro drug susceptibility assay, protozoon D (3[H]-hypoxanthine method)
Protocol: (§1) Plasmodium falciparum strain K1 and strain 3D7 parasites were cultured according to Trager W and Jensen JB (Science 1976, 193: 673-675). In vitro drug susceptibility assays with the test compounds were carried out according to Korsinczky M et al. (Antimicrobial agents and chemotherapy 2000, 44(8): 2100-2108) and Fivelman QL et al. (Antimicrobial agents and chemotherapy 2004, 48(11): 4097-4102) using a ^3[H]-hypoxanthine radioisotope method. ED50 values were calculated with Msxlfit (IDBS).
(§2) The following protozoa were assessed: • A) Trypanosoma cruzi (Tulahuan-LACZ amstigotes in PEM, Lorente SO et al., Antimicrobial agents and chemotherapy 2004, 48(8): 2937-2950; Buckner et al., Infection and Immunity 1999, 67(1): 403-409; Buckner et al., Antimicrobial Agents and Chemotherapy 1996, 40(11): 2592-2597) • B) Trypanosoma brucei rhodesiense (strain STIB900, Lorente SO et al., Antimicrobial agents and chemotherapy 2004, 48(8): 2937-2950; Habtemariam S, BMC Pharmacology 2003, 3:6) • C) Plasmodium falciparum (strain K1, Korsinczky M et al., Antimicrobial agents and chemotherapy 2000, 44(8): 2100-2108; Thaitong S and Beale GH, Trans. R. Soc. Trop. Med. Hyg. 1981, 75: 271-273; Trager W and Jensen JB, Science 1976, 193: 673-675) • D) Plasmodium falciparum (strain 3D7, Mu et al., PLoS Biology 2005, 3(10): e335)

[2] = tested on: RKOp21 (human colon adenocarcinoma) cells; experiment: XTT cytotoxicity assay, RKOp21 cells; settings: 48 h, 2 days of continuous drug exposure
Protocol: Human tumor cell lines KB/HeLa (ATCC CCL17, human cervix carcinoma), PC3 (ATCC CRL1435, human prostate carcinoma) and RKOp21 (human colon adenocarcinoma) cells were used in an automated XTT screening assay for the assessment of cytotoxicity.
The XTT assay quantifies cellular metabolic activity which correlates with cell viability and cell number. Test compounds (selected compounds of the invention and known substances as controls) are dissolved in culture medium at 600µM and added to the tumor cells in 10 different concentrations in a semi-logarithmic fashion starting from 100 µM as highest concentration.
48h later cellular metabolic activity of cells treated with test compounds is quantified by measurement of the absorbance at 490nm (conversion of XTT dye) in comparison to untreated control cells (100% viability).
KB/HeLa and PC3 cells were cultivated in RPMI medium supplemented with 10% heat inactivated fetal calf serum, 2 mM glutamine, 100 U/ml penicillin, and 100 µg/ml streptomycin. RKOp21 cells were grown in DMEM supplemented with 10% heat inactivated fetal calf serum, 2 mM glutamine, 100 U/ml penicillin, and 100 µg/ml streptomycin. All cells were cultured at 37°C in 5% CO2 humidified air.
On the first day of the experiment cells were harvested from exponential phase cultures by trypsination, counted and plated into 96 well flat-bottom micro titer plates depending on the cell line as listed below:
After a 24h recovery to allow the cells to resume exponential growth, the test compounds were diluted immediately prior to use and transferred in 25µl volume to the wells.
Following 2 days of continuous drug exposure 50µl of freshly prepared XTT-PMS solution (2% […] PMS in PBS + 98% 1 mg/ml XTT in RPMI 1640 without phenol red) was added to the wells. To measure the proportion of living cells, the cells were incubated for 3 h with XTT-PMS reagent at 37°C, 5% CO2, humidified atmosphere allowing to form the formazan salt. The amount of soluble formazan salt produced by cellular reduction of XTT is quantified by measuring the absorbance at 490nm using the Biomek® 2000 ELISA plate reader.
%-inhibition (cytotoxicity) of each test compound was calculated in relation to untreated control cells. Inhibition curves were generated and IC50 values calculated by using GraphPad Prism.

[3] = tested on: Trypanosoma brucei rhodesiense (strain STIB900); experiment: In vitro drug activity assay, protozoon B (bloodstream form trypomastigotes, Alamar Blue); settings: incubated for 72 hours
Protocol: Trypanosoma brucei rhodesiense STIB900 bloodstream form trypomastigotes were maintained in HMI-18 medium (Hirumi H, Hirumi K, J Parasitol. 1989, 75(6):985-989) with 15% heat-inactivated fetal calf serum at 37°C, 5% CO2, humidified atmosphere. Trypomastigotes were washed and resuspended in fresh medium at a concentration of 2 x 10^5 mL. Test compounds were given to the trypomastigotes and plates were incubated for 72 hours at 37°C, 5% CO2, humidified atmosphere. At 72 hours the plates were assessed microscopically before Alamar Blue was added (Raz et al., Acta Trop. 1997, 68: 139-147). Plates were read after 5 to 6 hours at EX/EM 530/585 nm with a filter cutoff at 550 nm. ED50 values were calculated with Msxlfit (IDBS).
as §2

[4] = tested on: Candida parapsilosis (ATCC 22019); experiment: Anti-fungal susceptibility test (microdilution), fungus D; settings: ATCC22019, no visible growth after 48 hours at 35° C, read-out: MIC
Protocol: (§3) The antifungal activities of the test compounds (compounds of the invention and known prior art compounds) were measured according to standard microdilution methods (Cryptococcus/Aspergillus: Ghannoum et al., Journal of Clinical Microbiology 1992, 30 (11): 2881-2886; Candida: Reference method for broth dilution susceptibility testing of yeast: proposed standard, NCCLS document M27-P, National Committee for Clinical Laboratory Standards 1992, Villanova, Pa).
(§4) A serial dilution series starting from 64 µg/mL test compound per well down to 0.125 µg/mL test compound per well was applied for each test compound on each fungus. The MIC of each compound was defined as the concentration which produces no visible growth after 48 hours (Candida) and 72 hours (Cryptococcus, Aspergillus) of culture at 35° C.
(§5) The following fungi were assessed: • A) Candida albicans (ATCC 10231) • B) Candida albicans (ATCC 90028) • C) Candida albicans (strain TS3, Shrikantha et al., Journal of Bacteriology 2000, 182(6):1580-1591) • D) Candida parapsilosis (ATCC 22019) • E) Cryptocoocus neoformans (ATCC 90112) • F) Cryptocoocus neoformans (strain H99; Ganendren et al., Antimicrobial Agents and Chemotherapy, 2004, 48(5):1561-1569) • G) Cryptocoocus gattii (ATCC 32608) • H) Aspergillus fumigatus (ATCC 204305) • I) Aspergillus fumigatus (strain 322-384)

[5] = tested on: Plasmodium falciparum (strain K1); experiment: In vitro drug susceptibility assay, protozoon C (3[H]-hypoxanthine method)
Protocol: as §1, §2

[6] = tested on: Aspergillus fumigatus (strain 322-384); experiment: Anti-fungal susceptibility test (microdilution), fungus I; settings: Aspergillus fumigatus, no visible growth after 72 hours at 35° C, read-out: MIC
Protocol: as §3, §4, §5

[7] = tested on: Cryptocoocus neoformans (strain H99); experiment: Anti-fungal susceptibility test (microdilution), fungus F; settings: fungus F; no visible growth after 72 hours at 35° C; read-out: MIC
Protocol: as §3, §4, §5

Question: CCCCCCCCCCCCCCCCOP(=O)([O-])OCC[N+]1(C)CCCCC1 [Compound 2, Phosphoric acid 2-(1-methyl-piperidin-1-yl)-ethyl ester hexadecyl ester] was tested. Which “ED50 (µg/mL)” value [1] did it give?
Answer: Its value is 2,21 µg/mL.

Question: What about the IC50 [2] of the same compound?
Answer: Its IC50 is 40.9 µM.

Question: And the “ED50 (µg/mL)” value [3]?
Answer: Its value is 17,50 µg/mL.

Question: What about the MIC [4] of the same compound?
Answer: Its MIC is 2 µg/mL (≈ 4.47 µM).

Question: And the “ED50 (µg/mL)” value [5]?
Answer: The value was 19,36 µg/mL.

Question: What about the MIC [6] of the same compound?
Answer: The MIC was 2 µg/mL (≈ 4.47 µM).

Question: And the MIC [7]?
Answer: Its MIC is 1 µg/mL (≈ 2.23 µM).

From patent EP1800684A1, “Novel alkyl phospholipid derivatives and uses thereof” (Zentaris GmbH, priority 2005, dated 2007)
